The record followed here is patent publication US12209081B2 (Katholieke Universiteit Leuven, priority 2020, dated 2025).

This assay has as its target mouse TRPM3α2 (mTRPM3) ion channel (Mus musculus (Mouse), UniProt J9SQF3). The experiment in a line: TRPM3 ion channel driven Ca2+ uptake, Fluo-4 AM assay, mTRPM3alpha2 overexpressing flip-in HEK293 cells stimulated with pregnenolone sulfate. It counts as cell-based. As for the experimental part: Part B Monitoring the TRPM3 Ion Channel Driven Ca^2+ Uptake.
In order to monitor the inhibition of the mouse TRPM3α2 (mTRPM3) ion channel by the compounds of the invention, a cellular system making use of an mTRPM3alpha2 or hTRPM3 overexpressing cell line (flip-in HEK293) was used. The TRPM3 channel was stimulated/opened with Pregnenolone sulfate (PS) (50 μM) which results in Ca^2+ influx.
For mTRPM3, the intracellular Ca^2+ was measured with a Calcium responsive dye. Fluor-4 AM ester (Invitrogen). Cells were cultured until a confluence of 80-90%, washed with Versene (Invitrogen) and detached from the surface by a short incubation with 0.05% Trypsin (Invitrogen). The trypsination process was stopped by the addition of complete cell culture medium (DMEM, glutamax, 10% FCS,NEAA,Pen-Strep). Cells were collected and resuspended in Krebs buffer without Calcium at RT.
Prior the cell seeding (±2000 cells/well into a black, 384 well plate (Greiner)) the diluted compound was added in the assay plate, together with the PS dissolved in Krebs buffer containing Calcium. […] Directly after cell addition the plates were read on an Envision fluorescence reader (Perkin Elmer) by an Excitation of 485 nm and emission at 535 nm.
Channel inhibition was calculated compared to a non-PS stimulated control versus a condition stimulated with PS (50 μM) with vehicle. The ability of the compounds of the invention to inhibit this activity was determined as: Percentage inhibition=[1-((RFU determined for sample with test compound present—RFU determined for sample with positive control inhibitor) divided by (RFU determined in the presence of vehicle—RFU determined for sample with positive control inhibitor))]*100.

Setting [1] is: PS (50 μM) stimulated, cpds. 500-599.
[2] abbreviates: PS (50 μM) stimulated, cpds. 400-499.
Setting [3] is: PS (50 μM) stimulated, cpd 001-199.
The mark [4] stands for this setting: PS (50 μM) stimulated, cpds. 608-666.
The mark [5] stands for this setting: PS (50 μM) stimulated, cpds. 667-751.

Molecules are shown by their SMILES. A value given as a limit tells only on which side of the number the result lay.

Chain of mouse TRPM3α2 (mTRPM3) ion channel (J9SQF3 other isoform, or with tags, fused parts or gaps): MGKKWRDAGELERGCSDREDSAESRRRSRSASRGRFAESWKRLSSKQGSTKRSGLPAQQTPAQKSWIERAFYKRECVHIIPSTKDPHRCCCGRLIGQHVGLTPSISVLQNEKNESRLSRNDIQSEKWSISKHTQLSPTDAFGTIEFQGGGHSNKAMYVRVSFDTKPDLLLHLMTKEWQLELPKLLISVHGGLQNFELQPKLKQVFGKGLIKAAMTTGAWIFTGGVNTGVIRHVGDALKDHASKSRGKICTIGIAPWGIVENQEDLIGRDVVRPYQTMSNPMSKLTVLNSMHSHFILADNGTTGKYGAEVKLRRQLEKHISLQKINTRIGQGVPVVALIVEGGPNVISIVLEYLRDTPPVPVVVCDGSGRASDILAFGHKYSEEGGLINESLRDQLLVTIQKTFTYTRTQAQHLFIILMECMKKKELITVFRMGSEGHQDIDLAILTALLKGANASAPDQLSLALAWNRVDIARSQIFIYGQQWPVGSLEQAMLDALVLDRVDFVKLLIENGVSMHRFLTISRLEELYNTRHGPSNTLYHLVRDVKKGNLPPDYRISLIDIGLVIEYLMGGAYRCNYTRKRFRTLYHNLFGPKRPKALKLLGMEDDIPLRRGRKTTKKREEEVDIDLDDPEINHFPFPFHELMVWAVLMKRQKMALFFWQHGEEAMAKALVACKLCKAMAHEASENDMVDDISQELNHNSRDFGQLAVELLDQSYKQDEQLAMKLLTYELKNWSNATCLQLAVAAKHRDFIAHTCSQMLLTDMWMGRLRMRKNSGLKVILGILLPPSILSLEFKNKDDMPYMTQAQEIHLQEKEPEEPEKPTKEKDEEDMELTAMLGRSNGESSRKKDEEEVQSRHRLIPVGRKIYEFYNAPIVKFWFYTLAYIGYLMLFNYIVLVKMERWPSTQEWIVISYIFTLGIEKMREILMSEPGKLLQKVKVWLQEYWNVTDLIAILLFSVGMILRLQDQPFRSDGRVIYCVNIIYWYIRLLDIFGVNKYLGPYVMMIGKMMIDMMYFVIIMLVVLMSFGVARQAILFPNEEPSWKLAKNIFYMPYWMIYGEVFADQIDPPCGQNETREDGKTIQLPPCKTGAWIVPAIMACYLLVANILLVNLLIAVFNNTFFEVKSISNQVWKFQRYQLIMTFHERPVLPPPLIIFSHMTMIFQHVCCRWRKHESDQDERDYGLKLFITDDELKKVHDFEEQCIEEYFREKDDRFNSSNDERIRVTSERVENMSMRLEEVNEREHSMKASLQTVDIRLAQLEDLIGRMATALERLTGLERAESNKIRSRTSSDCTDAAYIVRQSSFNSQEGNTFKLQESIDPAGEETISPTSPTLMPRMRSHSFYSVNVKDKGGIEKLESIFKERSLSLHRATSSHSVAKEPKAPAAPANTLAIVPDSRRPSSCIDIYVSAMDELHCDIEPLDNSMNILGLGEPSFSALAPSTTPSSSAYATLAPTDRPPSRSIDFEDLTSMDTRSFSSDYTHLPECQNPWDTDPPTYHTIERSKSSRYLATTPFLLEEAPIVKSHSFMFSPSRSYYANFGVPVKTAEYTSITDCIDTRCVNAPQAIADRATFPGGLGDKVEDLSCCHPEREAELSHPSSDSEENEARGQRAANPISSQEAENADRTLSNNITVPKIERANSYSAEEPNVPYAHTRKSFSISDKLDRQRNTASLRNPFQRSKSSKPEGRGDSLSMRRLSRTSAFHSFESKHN

Broadly, the IC50 is the midpoint of a concentration-inhibition curve. Higher therefore signals weaker potency in that assay. For `COc1ncccc1COc1ccc2oc(C)c(C(=O)NC3(C(N)=O)COC3)c2c1` [compound 586, N-(3-carbamoyloxetan-3-yl)-5-((2-methoxypyridin-3-yl)methoxy)-2-methylbenzofuran-3-carboxamide], under setting [1], the IC50 is less than 1 µM. As to `Cc1oc2ccc(OCc3cccnc3C(F)(F)F)cc2c1C(=O)N[C@@H](CO)C(N)=O` [compound 280, (S)-N-(1-amino-3-hydroxy-1-oxopropan-2-yl)-2-methyl-5-((2-(trifluoromethyl)pyridin-3-yl)methoxy)benzofuran-3-carboxamide], where the note is “PS 50 μM, cpds 200-299”, the 50% inhibitory concentration (IC50) was less than 1 µM. In the case of `Cc1ncsc1COc1ccc2oc(C)c(C(=O)NCCC(F)F)c2c1` [compound 574, N-(3,3-difluoropropyl)-2-methyl-5-((4-methylthiazol-5-yl)methoxy)benzofuran-3-carboxamide], under setting [1], the IC50 was less than 1 µM.

Compound `Cc1nc(C)c(COc2ccc3oc(C)c(C(=O)NC4CCNCC4(F)F)c3c2)s1` (single isomer, unassigned) [cpd 563-En 1] yielded an IC50 under setting [1] of less than 1 µM. Regarding `Cc1ncsc1COc1ccc2oc(C)c(C(=O)N[C@H](C)C(N)=O)c2c1` [compound 271, (R)-N-(1-amino-1-oxopropan-2-yl)-2-methyl-5-((4-methylthiazol-5-yl)methoxy)benzofuran-3-carboxamide], the half-maximal inhibitory concentration (IC50) (PS 50 μM, cpds 200-299) was less than 1 µM. On to `Cc1oc2ccc(OCc3cccnc3O)cc2c1C(=O)NC(C)(C)C(N)=O` [compound 443, N-(1-amino-2-methyl-1-oxopropan-2-yl)-5-((2-hydroxypyridin-3-yl)methoxy)-2-methylbenzofuran-3-carboxamide], for which the IC50 under setting [2] is less than 1 µM. The compound `Cc1ncsc1COc1cc2c(C(=O)NC3(CO)CCOCC3)c(C)oc2cc1Cl` [compound 174, 6-chloro-N-(4-(hydroxymethyl)tetrahydro-2H-pyran-4-yl)-2-methyl-5-((4-methylthiazol-5-yl) -methoxy)benzofuran-3-carboxamide] showed an IC50 under setting [3] of less than 1 µM. For the compound `Cc1ncsc1COc1ccc2oc(C)c(C(=O)NC3CC4(COC4)C3)c2c1` [compound 156, 2-methyl-5-((4-methylthiazol-5-yl)methoxy)-N-(2-oxaspiro[3,3]heptan-6-yl)benzofuran-3-carboxamide], under setting [3], the IC50 is less than 1 µM.

Consider `Cc1ncsc1COc1ccc2oc(C)c(C(=O)NCC(F)F)c2c1` [compound 498, N-(2,2-difluoroethyl)-2-methyl-5-((4-methylthiazol-5-yl)methoxy)benzofuran-3-carboxamide], for which the IC50 under setting [2] is less than 1 µM. `Cc1ncsc1COc1cc(F)c2oc(C)c(C(=O)NC3CCNCC3(F)F)c2c1` (single isomer, unassigned) [cpd 573-En 2] returned an IC50 under setting [1] of 1 to 20 µM. The compound `Cc1oc2ccc(OCc3cncc(C(F)(F)F)c3)cc2c1C(=O)N[C@H]1CCN(C(=O)OC(C)(C)C)C1` [compound 077, tert-butyl (S)-3-(2-methyl-5-((5-(trifluoromethyl)pyridin-3-yl)methoxy)benzofuran-3-carboxamido)pyrrolidine-1-carboxylate] gave an IC50 under setting [3] greater than 20 µM. For `Cc1cnc(COc2ccc3oc(C)c(C(=O)NC4CCNCC4(F)F)c3c2)s1` (single isomer, unassigned) [cpd 555-En 1], the half-maximal inhibitory concentration (IC50) under setting [1] was less than 1 µM. Turning to `Cc1oc2ccc(OCc3ccccn3)cc2c1C(=O)NC(C)(C)CO` [compound 484, N-(1-hydroxy-2-methylpropan-2-yl)-2-methyl-5-(pyridin-2-ylmethoxy)benzofuran-3-carboxamide], the IC50 under setting [2] is less than 1 µM.

Consider `Cc1oc2ccc(OCc3cccnc3C(F)(F)F)cc2c1C(=O)NC1COCC1O` (single isomer, unassigned) [147-Dia 1-En 1, N-(4-hydroxytetrahydrofuran-3-yl)-2-methyl-5-((2-(trifluoromethyl)pyridin-3-yl)methoxy) -benzofuran-3-carboxamide], for which the IC50 under setting [3] is less than 1 µM. Under setting [2], `Cc1ncc(COc2ccc3oc(C)c(C(=O)NC(CO)c4nc5ccccc5[nH]4)c3c2)s1` (single isomer, unassigned) [cpd 401-En 2] returned an IC50 of 1 to 20 µM. `Cc1oc2ccc(OCc3cccnc3C(F)(F)F)cc2c1C(=O)NC1COCC1(F)F` (stereo not shown) [compound 664, N-(4,4-difluorotetrahydrofuran-3-yl)-2-methyl-5-((2-(trifluoromethyl)pyridin-3-yl)methoxy)benzofuran-3-carboxamide] registered an IC50 under setting [4] of less than 1 µM. `Cc1ncsc1COc1ccc2oc(C)c(C(=O)NC3(C(F)F)CCC3)c2c1` [compound 721, N-(1-(Difluoromethyl)cyclobutyl)-2-methyl-5-((4-methylthiazol-5-yl)methoxy)benzofuran-3-carboxamide] registered a half-maximal inhibitory concentration (IC50) under setting [5] of less than 1 µM.

Under setting [1], `Cc1oc2ccc(OCc3ncccc3F)cc2c1C(=O)NC1CCNCC1(F)F` (single isomer, unassigned) [cpd 566-En 1] had a half-inhibitory concentration (IC50) of less than 1 µM. Compound `Cc1oc2ccc(OCc3nccn3C)cc2c1C(=O)NC1CNCC1(F)F` (single isomer, unassigned) [cpd 638-En 2] returned an IC50 under setting [4] of 1 to 20 µM. For the compound `Cc1ncc(COc2ccc3oc(C)c(C(=O)NC(C)(C)CO)c3c2)s1` [compound 483, N-(1-hydroxy-2-methylpropan-2-yl)-2-methyl-5-((2-methylthiazol-5-yl)methoxy)benzofuran-3-carboxamide], the IC50 under setting [2] was less than 1 µM. Under setting [2], `Cc1oc2ccc(OCc3cccnc3C(F)(F)F)cc2c1C(=O)NC(C)CO` (single isomer, unassigned) [cpd 489-En 2] showed an IC50 of less than 1 µM.

With `Cc1ncsc1COc1ccc2oc(C)c(C(=O)NC(C)(C)CCO)c2c1` [compound 652, N-(4-hydroxy-2-methylbutan-2-yl)-2-methyl-5-((4-methylthiazol-5-yl)methoxy)benzofuran-3-carboxamide], the IC50 under setting [4] was less than 1 µM. As to `Cc1ncsc1COc1ccc2oc(C)c(C(=O)NC3CN(C(=O)OCC(F)(F)F)CC3(F)F)c2c1` (single isomer, unassigned) [172-En 1, 2,2,2-trifluoroethyl 3,3-difluoro-4-(2-methyl-5-((4-methylthiazol-5-yl)methoxy)benzofuran-3-carboxamido)pyrrolidine-1-carboxylate], the IC50 under setting [3] is less than 1 µM. On to `CCOc1ncccc1COc1ccc2oc(C)c(C(=O)NC3(CO)CCOCC3)c2c1` [compound 206, 5-((2-ethoxypyridin-3-yl)methoxy)-N-(4-(hydroxymethyl)tetrahydro-2H-pyran-4-yl)-2-methyl-benzofuran-3-carboxamide], for which the IC50 (PS 50 μM, cpds 200-299) is less than 1 µM. The compound `Cc1ncsc1COc1ccc2oc(C)c(C(=O)NC3COCC3O)c2c1` (single isomer, unassigned; dia 1) [162-Dia 1-En1] returned an IC50 under setting [3] of less than 1 µM. `Cc1oc2ccc(OCc3ccn(C)n3)cc2c1C(=O)N[C@@H](CO)C(N)=O` [compound 686, (S)-N-(1-Amino-3-hydroxy-1-oxopropan-2-yl)-2-methyl-5-((1-methyl-1H-pyrazol-3-yl)methoxy)benzofuran-3-carboxamide] returned an IC50 under setting [5] of less than 1 µM.

Consider `Cc1ncc(COc2ccc3oc(C)c(C(=O)NC(CS(C)(=O)=O)C(N)=O)c3c2)s1` (single isomer, unassigned) [cpd 726-En 1], for which, under setting [5], the IC50 is less than 1 µM.

`Cc1oc2ccc(OCc3cccnc3C(F)F)cc2c1C(=O)NC1(CO)CCOCC1` [compound 343, 5-((2-(difluoromethyl)pyridin-3-yl)methoxy)-N-(4-(hydroxymethyl)tetrahydro-2H-pyran-4-yl)-2-methylbenzofuran-3-carboxamide] displayed an IC50 (PS 50 μM, cpds 300-399) of less than 1 µM.
